Common to all, as to format: functional
Assay [1] deals with Acinetobacter calcoaceticus. Put plainly: Tested in vitro for inhibitory activity against gram negative bacteria Acinetobacter calcoaceticus OSMPV 113 strain.
The next assay concerns Enterobacter cloacae. The assay can be described thus: Tested in vitro for inhibitory activity against gram negative bacteria Enterobacter cloacae OMNFI 174 strain.
The subject of assay [2] is Escherichia coli. The assay can be described thus: Tested in vitro for inhibitory activity against gram negative bacteria Escherichia coli ATCC 8739 strain at 25 ug/mL.
Assay [3] concerns Escherichia coli. The assay can be described thus: Tested in vitro for inhibitory activity against gram negative bacteria Escherichia coli ISF 432 strain at 25 ug/mL.
The subject of the next assay is Shigella. Put plainly: Tested in vitro for inhibitory activity against gram negative bacteria Shigella enteritidis.
In assay [4] the test system is Staphylococcus epidermidis. Put plainly: Tested in vitro for inhibitory activity against gram positive bacteria Staphylococcus epidermidis HCF berset C strain.
Assay [5] has as its system Staphylococcus aureus. Put plainly: Tested in vitro for inhibitory activity against gram positive bacteria Staphylococcus aureus ATCC 6538 strain.
The test system of assay [6] is Staphylococcus aureus. The assay can be described thus: Tested in vitro for inhibitory activity against gram positive bacteria Staphylococcus aureus MPR 5 strain.
A further assay deals with Enterococcus faecalis. The assay can be described thus: Tested in vitro for inhibitory activity against gram positive bacteria Streptococcus faecalis LEP Br strain.
Assay [7] has as its system Staphylococcus epidermidis. The assay can be described thus: Tested in vitro for inhibitory activity against gram positive bacteria Staphylococcus epidermidis CPHL A2 strain.
A further assay deals with Klebsiella pneumoniae. Put plainly: Tested in vitro for inhibitory activity against gram negative bacteria Klebsiella pneumoniae ATCC 10031 strain.
The test system of assay [8] is Providencia stuartii. The assay can be described thus: Tested in vitro for inhibitory activity against gram negative bacteria Providencia stuartii CNUR 5 strain.
A further assay has as its system Pseudomonas aeruginosa. The assay can be described thus: Tested in vitro for inhibitory activity against gram negative bacteria Pseudomonas aeruginosa ATCC 9027 strain.
The subject of assay [9] is Escherichia coli. The assay can be described thus: Tested in vitro for inhibitory activity against gram negative bacteria Escherichia coli ATCC 8739 strain.
For assay [10], the system named is Escherichia coli. The assay can be described thus: Tested in vitro for inhibitory activity against gram negative bacteria Escherichia coli ISF 432 strain.
The subject of assay [11] is Providencia stuartii. The assay can be described thus: Tested in vitro for inhibitory activity against gram negative bacteria Providencia stuartii CNUR 5 cell lines.
Assay [12] deals with Escherichia coli. The assay can be described thus: Tested in vitro for inhibitory activity against gram negative bacteria Escherichia coli ATCC 8739 cell lines at 10 ug/mL.
For assay [13], the system named is Escherichia coli. The assay can be described thus: Tested in vitro for inhibitory activity against gram negative bacteria Escherichia coli ISF 432 cell lines at 10 ug/mL.
Assay [14] deals with Escherichia coli. Put plainly: Tested in vitro for inhibitory activity against gram negative bacteria Escherichia coli ATCC 8739 cell lines.
Assay [15] relates to Escherichia coli. Put plainly: Tested in vitro for inhibitory activity against gram negative bacteria Escherichia coli ATCC 8739 cell lines at 25 ug/mL.
The subject of assay [16] is Escherichia coli. The assay can be described thus: Tested in vitro for inhibitory activity against gram negative bacteria Escherichia coli ISF 432 cell lines at 25 ug/mL.
Assay [17] deals with Escherichia coli. Put plainly: Tested in vitro for inhibitory activity against gram negative bacteria Escherichia coli ATCC 8739 cell lines at 5.8 ug/mL.
Assay [18] has as its system Escherichia coli. The assay can be described thus: Tested in vitro for inhibitory activity against gram negative bacteria Escherichia coli ISF 432 cell lines at 5.8 ug/mL.

Structures are written as SMILES. Values after ≈ are worked out from the molar mass of the structure shown.

In the case of `CN1CCN(c2cc3c(cc2N)c(=O)c(C(=O)O)cn3C2CC2)CC1`, the MIC in [1] was 4 µg/mL (≈ 11.7 µM); in the assay with Enterobacter cloacae, 0.25 µg/mL (≈ 0.73 µM); with Escherichia coli [2], 0.25 µg/mL (≈ 0.73 µM); against Escherichia coli [3] it was 0.03 µg/mL (≈ 0.0876 µM); in the assay with Shigella it was 0.25 µg/mL (≈ 0.73 µM); in [4], 4 µg/mL (≈ 11.7 µM). Besides, the MIC with Staphylococcus aureus [5] stood at 2 µg/mL (≈ 5.84 µM); with Staphylococcus aureus [6], 2 µg/mL (≈ 5.84 µM); with Enterococcus faecalis it was 32 µg/mL (≈ 93.5 µM); in [7] it was 2 µg/mL (≈ 5.84 µM); in the assay on Klebsiella pneumoniae it was 0.03 µg/mL (≈ 0.0876 µM); in the assay with Providencia stuartii [8], 8 µg/mL (≈ 23.4 µM). The compound also showed an MIC in the assay with Pseudomonas aeruginosa of 4 µg/mL (≈ 11.7 µM).

For the compound `Nc1cc2c(=O)c(C(=O)O)cn(C3CC3)c2cc1Cl`, the MIC is 128 µg/mL (≈ 459 µM) in assay [1]; 16 µg/mL (≈ 57.4 µM) against Enterobacter cloacae; 2 µg/mL (≈ 7.18 µM) against Escherichia coli [9]; 2 µg/mL (≈ 7.18 µM) against Escherichia coli [10]; 64 µg/mL (≈ 230 µM) against Providencia stuartii [11]; 16 µg/mL (≈ 57.4 µM) with Shigella. Besides, the MIC came out at 64 µg/mL (≈ 230 µM) in assay [4]; 128 µg/mL (≈ 459 µM) in the assay with Staphylococcus aureus [5]; 128 µg/mL (≈ 459 µM) with Staphylococcus aureus [6]; 128 µg/mL (≈ 459 µM) in the assay on Enterococcus faecalis; 128 µg/mL (≈ 459 µM) in assay [7]; 2 µg/mL (≈ 7.18 µM) against Klebsiella pneumoniae. Besides, in the assay with Pseudomonas aeruginosa, the MIC is 128 µg/mL (≈ 459 µM).

In the case of `Nc1cc2c(=O)c(C(=O)O)cn(C3CC3)c2cc1N1CCSCC1`, the MIC was 1 µg/mL (≈ 2.89 µM) in assay [1]; 0.5 µg/mL (≈ 1.45 µM) against Enterobacter cloacae; 0.03 µg/mL (≈ 0.0868 µM) against Escherichia coli [12]; 0.03 µg/mL (≈ 0.0868 µM) in the assay on Escherichia coli [13]; 0.5 µg/mL (≈ 1.45 µM) against Shigella; 2 µg/mL (≈ 5.79 µM) in assay [4]. The MIC in the assay on Staphylococcus aureus [5] worked out at 0.5 µg/mL (≈ 1.45 µM); against Staphylococcus aureus [6], 0.5 µg/mL (≈ 1.45 µM); against Enterococcus faecalis it was 8 µg/mL (≈ 23.2 µM); in assay [7] it was 1 µg/mL (≈ 2.89 µM); against Klebsiella pneumoniae, 0.03 µg/mL (≈ 0.0868 µM); against Providencia stuartii [8], 1 µg/mL (≈ 2.89 µM). For the same compound, in the assay with Pseudomonas aeruginosa, the MIC was found to be 2 µg/mL (≈ 5.79 µM).

For the compound `Nc1cc2c(=O)c(C(=O)O)cn(C3CC3)c2cc1NC1CC1`, the MIC in assay [1] is 128 µg/mL (≈ 428 µM); against Enterobacter cloacae, 64 µg/mL (≈ 214 µM); with Escherichia coli [14] it was 2 µg/mL (≈ 6.68 µM); with Escherichia coli [10], 4 µg/mL (≈ 13.4 µM); against Shigella it was 64 µg/mL (≈ 214 µM); in assay [4] it was 128 µg/mL (≈ 428 µM). The MIC came out at 128 µg/mL (≈ 428 µM) against Staphylococcus aureus [5]; 128 µg/mL (≈ 428 µM) with Staphylococcus aureus [6]; 128 µg/mL (≈ 428 µM) in the assay on Enterococcus faecalis; 128 µg/mL (≈ 428 µM) in assay [7]; 2 µg/mL (≈ 6.68 µM) with Klebsiella pneumoniae; 128 µg/mL (≈ 428 µM) in the assay with Providencia stuartii [8]. This compound gave an MIC in the assay with Pseudomonas aeruginosa of 128 µg/mL (≈ 428 µM).

Consider `CN1CCN(c2nc3c(cc2N)c(=O)c(C(=O)O)cn3C2CC2)CC1`, for which the MIC in assay [1] is 4 µg/mL (≈ 11.6 µM); in the assay on Enterobacter cloacae, 0.12 µg/mL (≈ 0.349 µM); against Escherichia coli [15], 0.12 µg/mL (≈ 0.349 µM); in the assay with Escherichia coli [16], 0.03 µg/mL (≈ 0.0874 µM); in the assay with Shigella, 0.12 µg/mL (≈ 0.349 µM); in [4] it was 4 µg/mL (≈ 11.6 µM). The MIC against Staphylococcus aureus [5] was found to be 4 µg/mL (≈ 11.6 µM); in the assay with Staphylococcus aureus [6] it was 4 µg/mL (≈ 11.6 µM); with Enterococcus faecalis it was 32 µg/mL (≈ 93.2 µM); in assay [7] it was 4 µg/mL (≈ 11.6 µM); against Klebsiella pneumoniae, 0.03 µg/mL (≈ 0.0874 µM); with Providencia stuartii [8] it was 2 µg/mL (≈ 5.82 µM). For the same compound, the MIC with Pseudomonas aeruginosa came to 2 µg/mL (≈ 5.82 µM).

Consider `Nc1cc2c(=O)c(C(=O)O)cn(C3CC3)c2c(F)c1N1CCSCC1`, for which the MIC in assay [1] is 1 µg/mL (≈ 2.75 µM); with Enterobacter cloacae, 1 µg/mL (≈ 2.75 µM); in the assay on Escherichia coli [17] it was 0.12 µg/mL (≈ 0.33 µM); against Escherichia coli [18], 0.06 µg/mL (≈ 0.165 µM); against Shigella, 4 µg/mL (≈ 11 µM); in assay [4], 1 µg/mL (≈ 2.75 µM). In addition, the MIC against Staphylococcus aureus [5] turned out to be 0.5 µg/mL (≈ 1.38 µM); against Staphylococcus aureus [6], 0.25 µg/mL (≈ 0.688 µM); in the assay on Enterococcus faecalis, 4 µg/mL (≈ 11 µM); in assay [7], 0.5 µg/mL (≈ 1.38 µM); in the assay with Klebsiella pneumoniae it was 0.03 µg/mL (≈ 0.0826 µM); against Providencia stuartii [8] it was 0.5 µg/mL (≈ 1.38 µM). Moreover, the MIC in the assay with Pseudomonas aeruginosa was 4 µg/mL (≈ 11 µM).

For the compound `CN1CCN(c2c(N)c(N)c3c(=O)c(C(=O)O)cn(C4CC4)c3c2F)CC1`, the MIC is 2 µg/mL (≈ 5.33 µM) in assay [1]; 0.12 µg/mL (≈ 0.32 µM) against Enterobacter cloacae; 0.03 µg/mL (≈ 0.0799 µM) in the assay on Escherichia coli [14]; 0.03 µg/mL (≈ 0.0799 µM) in the assay on Escherichia coli [10]; 0.25 µg/mL (≈ 0.666 µM) in the assay with Shigella; 4 µg/mL (≈ 10.7 µM) in assay [4]. Further, the MIC against Staphylococcus aureus [5] worked out at 2 µg/mL (≈ 5.33 µM); against Staphylococcus aureus [6], 2 µg/mL (≈ 5.33 µM); in the assay on Enterococcus faecalis, 4 µg/mL (≈ 10.7 µM); in assay [7] it was 4 µg/mL (≈ 10.7 µM); against Klebsiella pneumoniae it was 0.03 µg/mL (≈ 0.0799 µM); against Providencia stuartii [8], 2 µg/mL (≈ 5.33 µM). Further, in the assay on Pseudomonas aeruginosa, the MIC was 4 µg/mL (≈ 10.7 µM).

(Values after ChEMBL document CHEMBL1128274, “6-Aminoquinolones: a new class of quinolone antibacterials?” (1995).)
